Experimental data published in ChEMBL document CHEMBL5608195, “Identification and biological evaluation of fused tetrahydroisoquinoline derivatives as Wnt/β-catenin signaling inhibitors to suppress colorectal cancer” (Eur J Med Chem, 2024).

How the values were obtained:
[1] = tested on: HCT-116; test: Antiproliferative activity against human HCT-116 cells assessed as inhibition rate at 20 uM incubated for 24 hrs by MTT assay relative to control; format: functional
[2] = tested on: RKO; test: Antiproliferative activity against human RKO cells incubated for 24 hrs by MTT assay; format: functional, cell-based
[3] = tested on: HCT-116; test: Antiproliferative activity against human HCT-116 cells incubated for 24 hrs by MTT assay; format: functional, cell-based; details: HCT-116, 24 h

| IC50 [3] [µM] | Structure (SMILES) | inhibition at 20 µM [1] [%] | IC50 [2] [µM] |
| --- | --- | --- | --- |
| – | COc1ccc2[nH]c3c(c2c1)CCN1Cc2ccccc2C31C (stereo not drawn) | 28.9 | – |
| 6.36 | Cc1ccc2c(c1)CCN1CCc3c([nH]c4ccc(Cl)cc34)C21C (stereo not drawn) | 88.3 | 6.48 |
| – | CC12c3ccccc3CCN1CCc1c2[nH]c2ccc(F)cc12 (stereo not drawn) | 7.8 | – |
| – | CC12c3ccccc3CCN1CCc1c2[nH]c2ccc(OCc3ccccc3)cc12 (stereo not drawn) | 20.4 | – |
| – | C[C@@]12c3ccc(Cl)cc3CCN1CCc1c2[nH]c2ccc(Cl)cc12 | 84 | – |
| – | COc1ccc2[nH]c3c(c2c1)CCN1CCc2cc(Cl)ccc2C31C (stereo not drawn) | 66.7 | – |
| – | CC12c3ccc(F)cc3CCN1CCc1c2[nH]c2ccc(Cl)cc12 (stereo not drawn) | 88.7 | – |
| – | C[C@]12c3ccc(Cl)cc3CCN1CCc1c2[nH]c2ccc(Cl)cc12 | 81 | – |
| – | CC12c3cc(F)ccc3CCN1CCc1c2[nH]c2ccc(Cl)cc12 (stereo not drawn) | 80.7 | – |
| – | Cc1ccc2[nH]c3c(c2c1)CCN1Cc2ccccc2C31C (stereo not drawn) | 43.9 | – |
| 7.52 | Cc1ccc2c(c1)C1(C)c3[nH]c4ccc(Cl)cc4c3CCN1CC2 (stereo not drawn) | 92.1 | 7.28 |
| – | CC12c3ccc(Cl)cc3CC(=O)N1CCc1c2[nH]c2ccc(Cl)cc12 (stereo not drawn) | 70.3 | – |
| – | CC12c3ccccc3CCN1CCc1c2[nH]c2ccc(Br)cc12 (stereo not drawn) | 3.6 | – |
| – | CC12c3ccccc3CC(=O)N1CCc1c2[nH]c2ccccc12 (stereo not drawn) | 65.2 | – |
| – | COc1ccc2[nH]c3c(c2c1)CCN1CCc2ccccc2C31C (stereo not drawn) | 10.9 | – |
| – | CC12c3ccccc3CN1CCc1c2[nH]c2ccc(Cl)cc12 (stereo not drawn) | 43.8 | – |
| – | CC12c3ccc(Cl)cc3CCN1CCc1c2[nH]c2ccc(F)cc12 (stereo not drawn) | 18.4 | – |
| 6.77 | CC12c3cc(Cl)ccc3CCN1CCc1c2[nH]c2ccc(Cl)cc12 (stereo not drawn) | 89.1 | 6.84 |
| – | Cc1ccc2c(c1)C1(C)c3[nH]c4ccc(Cl)cc4c3CCN1C2 (stereo not drawn) | 64.6 | – |
| – | CC12c3cc(O)ccc3CN1CCc1c2[nH]c2ccc(Cl)cc12 (stereo not drawn) | 26.9 | – |
| – | CC12c3ccc(Cl)cc3CCN1CCc1c2[nH]c2ccc(Br)cc12 (stereo not drawn) | 3.6 | – |
| – | CC12c3ccccc3CCN1CCc1c2[nH]c2ccc(Cl)cc12 (stereo not drawn) | 83.7 | – |
| – | Cc1ccc2c(c1)C1(C)c3[nH]c4ccccc4c3CCN1C2 (stereo not drawn) | 36 | – |
| – | Cc1ccc2[nH]c3c(c2c1)CCN1CCc2cc(Cl)ccc2C31C (stereo not drawn) | 22.8 | – |
| – | COc1ccc2c(c1)C1(C)c3[nH]c4ccc(Cl)cc4c3CCN1CC2 (stereo not drawn) | 77 | – |
| – | CC12c3cc(F)ccc3CC(=O)N1CCc1c2[nH]c2ccc(Cl)cc12 (stereo not drawn) | 49 | – |
| – | Cc1ccc2[nH]c3c(c2c1)CCN1CCc2ccccc2C31C (stereo not drawn) | 59.5 | – |
